Conditions: Coaxial cylinder method

CCC [propane]
thermal conductivity [W/m/K]
Conditions	367.32 K	368.46 K
2968 kPa, Gas	–	0.03214
2972 kPa, Gas	–	0.03214
2978 kPa, Gas	–	0.03213
3000 kPa, Gas	–	0.03223
3030 kPa, Gas	–	0.03238
3100 kPa, Gas	–	0.03275
3150 kPa, Gas	–	0.03302
3200 kPa, Gas	–	0.03331
3250 kPa, Gas	–	0.0336
3300 kPa, Gas	–	0.03395
3350 kPa, Gas	–	0.03428
3400 kPa, Gas	–	0.03471
3500 kPa, Gas	–	0.03552
3575 kPa, Gas	–	0.03626
3650 kPa, Gas	–	0.03704
3700 kPa, Gas	–	0.03759
3720 kPa, Gas	–	0.03785
3730 kPa, Gas	–	0.03799
3740 kPa, Gas	–	0.0381
3750 kPa, Gas	–	0.03825
3755 kPa, Gas	–	0.03832
3765 kPa, Gas	–	0.03844
3775 kPa, Gas	–	0.03858
3785 kPa, Gas	–	0.03873
3790 kPa, Gas	–	0.03878
3800 kPa, Gas	–	0.03892
3850 kPa, Gas	–	0.03974
3900 kPa, Gas	–	0.04073
3950 kPa, Gas	–	0.04194
4000 kPa, Gas	–	0.04351
4038 kPa, Gas	–	0.04518
4060 kPa, Gas	–	0.04654
4066 kPa, Liquid	0.1808	–
4067 kPa, Liquid	0.1761	–
4068 kPa, Liquid	0.1712	–
4069 kPa, Liquid	0.1669	–
4070 kPa, Liquid	0.1627	–
4071 kPa, Liquid	0.1586	–
4072 kPa, Liquid	0.1546	–
4073 kPa, Liquid	0.1511	–
4074 kPa, Liquid	0.1475	–
4075 kPa, Liquid	0.1439	–
4076 kPa, Liquid	0.1405	–
4077 kPa, Liquid	0.1378	–
4078 kPa, Liquid	0.1345	–
4079 kPa, Liquid	0.1317	–
4080 kPa, Gas	–	0.04809
4080 kPa, Liquid	0.129	–
4081 kPa, Liquid	0.127	–
4082 kPa, Liquid	0.1249	–
4083 kPa, Liquid	0.123	–
4084 kPa, Liquid	0.121	–
4085 kPa, Liquid	0.1189	–
4086 kPa, Liquid	0.1166	–
4087 kPa, Liquid	0.115	–
4088 kPa, Liquid	0.1136	–
4089 kPa, Liquid	0.1118	–
4090 kPa, Liquid	0.1105	–
4091 kPa, Liquid	0.109	–
4092 kPa, Liquid	0.1085	–
4093 kPa, Liquid	0.1068	–
4094 kPa, Liquid	0.1051	–
4095 kPa, Liquid	0.1042	–
4096 kPa, Gas	–	0.04969
4096 kPa, Liquid	0.1034	–
4097 kPa, Liquid	0.1027	–
4098 kPa, Liquid	0.1021	–
4099 kPa, Gas	–	0.05013
4099 kPa, Liquid	0.1016	–
4100 kPa, Liquid	0.1007	–
4101 kPa, Liquid	0.09965	–
4102 kPa, Gas	–	0.0505
4102 kPa, Liquid	0.09856	–
4103 kPa, Liquid	0.09755	–
4104 kPa, Gas	–	0.05078
4104 kPa, Liquid	0.09655	–
4105 kPa, Liquid	0.09562	–
4106 kPa, Gas	–	0.05104
4106 kPa, Liquid	0.0947	–
4107 kPa, Liquid	0.0938	–
4108 kPa, Liquid	0.09296	–
4109 kPa, Liquid	0.09214	–
4110 kPa, Liquid	0.09124	–
4112 kPa, Gas	–	0.05196
4112 kPa, Liquid	0.08967	–
4114 kPa, Gas	–	0.05236
4114 kPa, Liquid	0.0892	–
4115 kPa, Gas	–	0.0525
4116 kPa, Gas	–	0.0527
4116 kPa, Liquid	0.08674	–
4117 kPa, Gas	–	0.05291
4118 kPa, Gas	–	0.05307
4118 kPa, Liquid	0.08545	–
4119 kPa, Gas	–	0.05335
4120 kPa, Gas	–	0.05349
4120 kPa, Liquid	0.08412	–
4121 kPa, Gas	–	0.05378
4122 kPa, Gas	–	0.05392
4122 kPa, Liquid	0.08294	–
4123 kPa, Gas	–	0.05418
4124 kPa, Gas	–	0.0565
4124 kPa, Liquid	0.08176	–
4125 kPa, Gas	–	0.0589
4126 kPa, Gas	–	0.06178
4126 kPa, Liquid	0.08067	–
4127 kPa, Gas	–	0.06494
4128 kPa, Gas	–	0.06863
4128 kPa, Liquid	0.07964	–
4129 kPa, Gas	–	0.07284
4130 kPa, Gas	–	0.07749
4130 kPa, Liquid	0.07867	–
4131 kPa, Gas	–	0.08276
4132 kPa, Gas	–	0.08878
4132 kPa, Liquid	0.07775	–
4133 kPa, Gas	–	0.09573
4134 kPa, Gas	–	0.1033
4134 kPa, Liquid	0.07688	–
4135 kPa, Gas	–	0.1122
4136 kPa, Gas	–	0.1221
4136 kPa, Liquid	0.07609	–
4137 kPa, Gas	–	0.1337
4138 kPa, Gas	–	0.1478
4138 kPa, Liquid	0.07523	–
4139 kPa, Gas	–	0.1619
4140 kPa, Gas	–	0.1793
4140 kPa, Liquid	0.07455	–
4141 kPa, Gas	–	0.2022
4142 kPa, Gas	–	0.214
4142 kPa, Liquid	0.0738	–
4143 kPa, Gas	–	0.2272
4144 kPa, Gas	–	0.241
4144 kPa, Liquid	0.07315	–
4145 kPa, Liquid	–	0.2612
4146 kPa, Liquid	0.0725	0.2405
4147 kPa, Liquid	–	0.2228
4148 kPa, Liquid	0.07187	0.2065
4149 kPa, Liquid	–	0.1933
4150 kPa, Liquid	0.07132	0.1809
4151 kPa, Liquid	–	0.1745
4152 kPa, Liquid	0.07076	0.1686
4153 kPa, Liquid	–	0.164
4154 kPa, Liquid	0.07028	0.1581
4155 kPa, Liquid	–	0.1533
4156 kPa, Liquid	0.06982	0.1489
4157 kPa, Liquid	–	0.1449
4158 kPa, Liquid	–	0.141
4159 kPa, Liquid	–	0.1373
4160 kPa, Liquid	0.06894	0.1338
4161 kPa, Liquid	–	0.1305
4162 kPa, Liquid	0.06852	0.1273
4163 kPa, Liquid	–	0.1243
4164 kPa, Liquid	0.06814	0.1214
4165 kPa, Liquid	–	0.12
4166 kPa, Liquid	0.06773	–
4168 kPa, Liquid	0.0674	–
4170 kPa, Liquid	0.06707	–
4172 kPa, Liquid	0.06674	–
4174 kPa, Liquid	0.06646	–
4176 kPa, Liquid	0.0662	–
4178 kPa, Liquid	0.06599	–
4180 kPa, Liquid	0.06574	–
4182 kPa, Liquid	0.06551	–
4184 kPa, Liquid	0.0653	–
4186 kPa, Liquid	0.06509	–
4188 kPa, Liquid	0.0649	–
4190 kPa, Liquid	0.06474	–
4192 kPa, Liquid	0.0647	–
4194 kPa, Liquid	0.06462	–
4196 kPa, Liquid	0.06458	–
4198 kPa, Liquid	0.06458	–
4200 kPa, Liquid	0.06456	–
4202 kPa, Liquid	0.06454	–
4204 kPa, Liquid	0.06452	–
4206 kPa, Liquid	0.0645	–
4208 kPa, Liquid	0.06448	–
4210 kPa, Liquid	0.06446	–
4212 kPa, Liquid	0.06444	–
4214 kPa, Liquid	0.06445	–
4216 kPa, Liquid	0.06443	–
4218 kPa, Liquid	0.06443	–
4220 kPa, Liquid	0.06439	–
4222 kPa, Liquid	0.06437	–
4224 kPa, Liquid	0.06435	–
4226 kPa, Liquid	0.06433	–
4228 kPa, Liquid	0.06435	–
4230 kPa, Liquid	0.06433	–
4232 kPa, Liquid	0.06431	–
4234 kPa, Liquid	0.06432	–
4236 kPa, Liquid	0.06432	–
4238 kPa, Liquid	0.0643	–
4240 kPa, Liquid	0.06428	–
4250 kPa, Liquid	0.06424	–
4260 kPa, Liquid	0.0642	–
4270 kPa, Liquid	0.06416	–
4280 kPa, Liquid	0.06413	–
4290 kPa, Liquid	0.06409	–
4300 kPa, Liquid	0.06407	–
4350 kPa, Liquid	0.06399	–
4400 kPa, Liquid	0.06399	–
4450 kPa, Liquid	0.06405	–
4500 kPa, Liquid	0.06413	–
4550 kPa, Liquid	0.06426	–
4600 kPa, Liquid	0.0644	–
4650 kPa, Liquid	0.06452	–
4700 kPa, Liquid	0.06466	–
4770 kPa, Liquid	0.06483	–
4800 kPa, Liquid	0.06498	–
4850 kPa, Liquid	0.06516	–
4900 kPa, Liquid	0.06532	–
4950 kPa, Liquid	0.06554	–
4976 kPa, Liquid	0.06564	–
5077 kPa, Liquid	0.06597	–

— the NIST ThermoML archive (doi:10.1016/j.fluid.2017.06.019)
